Structures can show the parent of a compound that is named as a salt. Each block holds one compound with its values, some of them ahead of it.
Legend:
Prothrombin = Prothrombin (Homo sapiens, UniProt P00734); assay: Binding affinity to human thrombin
Trypsin = Trypsin (Homo sapiens, UniProt P07477+P07478+P35030); assay: Binding affinity to human trypsin; format: protein assay
[1] = biological target: Vitamin K-dependent protein C (Homo sapiens, UniProt P04070); assay: Binding affinity to human activated protein C
Sequence of Vitamin K-dependent protein C (P04070 43-197 limits assumed): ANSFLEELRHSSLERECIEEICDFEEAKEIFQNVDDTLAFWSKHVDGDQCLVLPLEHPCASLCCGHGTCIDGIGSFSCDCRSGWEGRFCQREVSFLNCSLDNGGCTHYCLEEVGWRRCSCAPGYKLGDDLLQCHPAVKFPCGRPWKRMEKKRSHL
Sequence of Vitamin K-dependent protein C (P04070 212-461 limits assumed): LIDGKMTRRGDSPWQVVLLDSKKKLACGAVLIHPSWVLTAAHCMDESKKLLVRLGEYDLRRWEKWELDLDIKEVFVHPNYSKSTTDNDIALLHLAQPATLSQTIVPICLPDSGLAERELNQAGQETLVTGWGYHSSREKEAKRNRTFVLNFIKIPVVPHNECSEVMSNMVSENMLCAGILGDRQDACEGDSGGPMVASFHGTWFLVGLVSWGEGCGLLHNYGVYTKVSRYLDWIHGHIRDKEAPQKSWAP

Coagulation factor IX = Coagulation factor IX (Homo sapiens, UniProt P00740); assay: Binding affinity to human f9a
Sequence of Coagulation factor IX (P00740 47-191 limits assumed): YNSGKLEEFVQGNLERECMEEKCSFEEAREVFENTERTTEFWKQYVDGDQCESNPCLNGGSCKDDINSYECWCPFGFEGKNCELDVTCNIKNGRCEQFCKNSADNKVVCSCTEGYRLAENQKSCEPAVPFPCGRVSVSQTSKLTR
Sequence of Coagulation factor IX (P00740 227-461 limits assumed): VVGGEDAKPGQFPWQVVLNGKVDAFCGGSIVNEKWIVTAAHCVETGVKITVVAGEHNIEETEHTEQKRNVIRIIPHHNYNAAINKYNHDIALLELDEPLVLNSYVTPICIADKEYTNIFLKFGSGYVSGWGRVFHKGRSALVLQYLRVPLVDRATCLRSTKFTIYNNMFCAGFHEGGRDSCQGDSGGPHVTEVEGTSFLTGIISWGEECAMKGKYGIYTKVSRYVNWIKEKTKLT

Plasminogen = Plasminogen (Homo sapiens, UniProt P00747); assay: Binding affinity to human plasmin
Sequence of Plasminogen (P00747 97-580 limits assumed): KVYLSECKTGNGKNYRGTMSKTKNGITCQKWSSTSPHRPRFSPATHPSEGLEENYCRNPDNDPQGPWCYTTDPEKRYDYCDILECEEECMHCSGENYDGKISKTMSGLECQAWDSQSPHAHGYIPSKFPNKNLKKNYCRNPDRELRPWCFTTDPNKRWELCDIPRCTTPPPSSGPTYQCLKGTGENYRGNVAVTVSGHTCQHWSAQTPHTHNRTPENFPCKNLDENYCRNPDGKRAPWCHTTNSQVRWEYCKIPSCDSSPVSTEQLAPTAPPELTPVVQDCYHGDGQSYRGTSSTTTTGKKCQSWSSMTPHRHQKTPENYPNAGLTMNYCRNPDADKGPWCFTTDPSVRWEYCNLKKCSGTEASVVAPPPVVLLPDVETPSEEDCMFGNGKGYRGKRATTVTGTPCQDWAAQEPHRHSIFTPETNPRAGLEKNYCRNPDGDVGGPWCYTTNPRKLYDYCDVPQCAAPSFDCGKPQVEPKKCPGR
Sequence of Plasminogen (P00747 581-810 limits assumed): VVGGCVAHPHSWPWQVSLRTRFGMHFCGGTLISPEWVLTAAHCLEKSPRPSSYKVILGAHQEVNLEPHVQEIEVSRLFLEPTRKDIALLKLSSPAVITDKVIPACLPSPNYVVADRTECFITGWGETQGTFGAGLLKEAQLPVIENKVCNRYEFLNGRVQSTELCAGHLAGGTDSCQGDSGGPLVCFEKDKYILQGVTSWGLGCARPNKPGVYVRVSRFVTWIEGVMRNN

[2] = biological target: Tissue-type plasminogen activator (Homo sapiens, UniProt P00750); assay: Binding affinity to human tPA
Sequence of Tissue-type plasminogen activator (P00750 whole entry): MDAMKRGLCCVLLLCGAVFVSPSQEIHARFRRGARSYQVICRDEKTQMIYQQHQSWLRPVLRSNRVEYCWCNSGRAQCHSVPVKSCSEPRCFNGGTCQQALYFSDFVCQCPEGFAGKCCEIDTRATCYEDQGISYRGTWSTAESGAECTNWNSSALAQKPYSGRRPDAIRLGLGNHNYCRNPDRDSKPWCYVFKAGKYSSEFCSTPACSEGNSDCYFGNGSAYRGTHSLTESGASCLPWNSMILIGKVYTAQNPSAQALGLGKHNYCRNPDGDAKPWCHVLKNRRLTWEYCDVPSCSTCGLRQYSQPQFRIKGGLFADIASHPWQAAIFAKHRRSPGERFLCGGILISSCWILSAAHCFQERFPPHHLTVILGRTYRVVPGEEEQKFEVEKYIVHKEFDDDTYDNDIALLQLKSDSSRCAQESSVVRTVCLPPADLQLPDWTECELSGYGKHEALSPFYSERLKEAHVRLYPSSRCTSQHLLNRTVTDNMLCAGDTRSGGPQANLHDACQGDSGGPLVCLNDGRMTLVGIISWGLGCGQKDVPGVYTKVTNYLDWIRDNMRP

[3] = biological target: Urokinase-type plasminogen activator (Homo sapiens, UniProt P00749); assay: Binding affinity to human urokinase
Chymotrypsinogen B = Chymotrypsinogen B (Homo sapiens, UniProt P17538); assay: Binding affinity to human chymotrypsin
Sequence of Chymotrypsinogen B (P17538 34-164 limits assumed, other chains not shown): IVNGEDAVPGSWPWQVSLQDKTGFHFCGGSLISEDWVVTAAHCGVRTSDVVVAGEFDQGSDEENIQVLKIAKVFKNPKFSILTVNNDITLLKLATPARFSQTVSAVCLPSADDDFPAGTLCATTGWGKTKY
Sequence of Chymotrypsinogen B (P17538 167-263 limits assumed, other chains not shown): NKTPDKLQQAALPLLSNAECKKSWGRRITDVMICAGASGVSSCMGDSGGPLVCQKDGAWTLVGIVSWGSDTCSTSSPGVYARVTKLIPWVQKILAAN

Coagulation factor X [4] = biological target: T1, Coagulation factor X (Oryctolagus cuniculus, UniProt O19045); assay: Binding affinity to rabbit f10a
T1 sequence (O19045 whole entry): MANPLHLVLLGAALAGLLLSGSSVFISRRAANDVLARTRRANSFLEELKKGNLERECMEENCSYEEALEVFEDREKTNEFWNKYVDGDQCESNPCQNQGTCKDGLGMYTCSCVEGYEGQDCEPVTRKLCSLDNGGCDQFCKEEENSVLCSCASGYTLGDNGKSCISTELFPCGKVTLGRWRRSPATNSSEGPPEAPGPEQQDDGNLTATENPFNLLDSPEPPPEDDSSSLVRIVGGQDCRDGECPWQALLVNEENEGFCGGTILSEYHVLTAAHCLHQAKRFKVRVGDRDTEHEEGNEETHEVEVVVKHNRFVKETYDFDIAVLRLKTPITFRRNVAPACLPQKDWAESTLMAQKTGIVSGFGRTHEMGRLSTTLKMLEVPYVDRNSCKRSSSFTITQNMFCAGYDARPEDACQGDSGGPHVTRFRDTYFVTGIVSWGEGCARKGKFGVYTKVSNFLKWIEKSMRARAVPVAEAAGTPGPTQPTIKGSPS

Oryctolagus cuniculus = assay: Inhibition of thrombus formation in iv dosed rabbit arterio-venous shunt model; format: functional, organism-based
[5] = Protein binding in rabbit plasma; format: ADME, organism-based, Oryctolagus cuniculus; conditions: read-out: PPB (converted)
Coagulation factor X [6] = biological target: T2, Coagulation factor X (Homo sapiens, UniProt P00742); assay: Anticoagulant activity in human plasma measured as activated partial thromboplastin time; format: functional, cell-free
T2 sequence (P00742 41-179 limits assumed): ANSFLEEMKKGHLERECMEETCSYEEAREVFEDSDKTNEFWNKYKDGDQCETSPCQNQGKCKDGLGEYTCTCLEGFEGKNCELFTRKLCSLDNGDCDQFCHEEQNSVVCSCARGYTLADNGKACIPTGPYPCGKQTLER
T2 sequence (P00742 235-488 limits assumed): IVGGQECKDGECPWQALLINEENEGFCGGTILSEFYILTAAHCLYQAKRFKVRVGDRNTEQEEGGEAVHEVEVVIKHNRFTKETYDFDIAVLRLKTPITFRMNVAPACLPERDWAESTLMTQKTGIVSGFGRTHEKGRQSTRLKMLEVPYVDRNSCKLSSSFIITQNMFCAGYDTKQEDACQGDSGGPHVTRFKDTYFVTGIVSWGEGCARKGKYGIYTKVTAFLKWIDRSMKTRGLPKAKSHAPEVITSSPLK

[7] = biological target: T3, Coagulation factor VII/tissue factor (Homo sapiens) (UniProt P08709+P13726); assay: Anticoagulant activity in human plasma measured as prothrombin time; format: functional, cell-free
[8] = biological target: T3, Coagulation factor VII/tissue factor (Homo sapiens); assay: Anticoagulant activity in rabbit plasma measured as prothrombin time; format: functional, cell-free; conditions: Oryctolagus cuniculus, target entry is the homologue from another species
Homo sapiens [9] = species on record: Homo sapiens; assay: Selectivity for f10a over chymotrypsin
[10] = biological target: Thrombin and coagulation factor X (Homo sapiens) (UniProt P00734+P00742); assay: Selectivity for f10a over thrombin; format: protein assay
Sequence of Thrombin and coagulation factor X (Homo sapiens) (P00742 whole entry, looked up, other chains not shown): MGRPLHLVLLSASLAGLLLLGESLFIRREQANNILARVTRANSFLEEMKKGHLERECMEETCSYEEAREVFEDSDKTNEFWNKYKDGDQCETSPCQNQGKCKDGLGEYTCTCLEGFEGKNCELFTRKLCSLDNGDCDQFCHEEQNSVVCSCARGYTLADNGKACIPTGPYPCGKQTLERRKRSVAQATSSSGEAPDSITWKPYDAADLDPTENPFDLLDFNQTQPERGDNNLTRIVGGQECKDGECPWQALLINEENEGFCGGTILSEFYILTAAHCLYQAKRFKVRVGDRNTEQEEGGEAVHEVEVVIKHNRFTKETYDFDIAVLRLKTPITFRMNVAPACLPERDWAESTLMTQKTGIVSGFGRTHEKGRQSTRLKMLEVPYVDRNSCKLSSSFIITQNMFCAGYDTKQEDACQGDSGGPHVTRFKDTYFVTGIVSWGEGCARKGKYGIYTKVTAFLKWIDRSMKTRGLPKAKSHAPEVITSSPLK

Homo sapiens [11] = species on record: Homo sapiens; assay: Selectivity for f10a over trypsin
Homo sapiens [12] = species on record: Homo sapiens; assay: Selectivity for f10a over activated protein C
[13] = biological target: Coagulation factor VII and X (Homo sapiens) (UniProt P00742+P08709); assay: Selectivity for f10a over f7a; format: protein assay
Homo sapiens [14] = species on record: Homo sapiens; assay: Selectivity for f10a over plasmin
Homo sapiens [15] = species on record: Homo sapiens; assay: Selectivity for f10a over tPA
[16] = biological target: Coagulation factor X and plasma kallikrein (Homo sapiens) (UniProt P03952+P00742); assay: Selectivity for f10a over plasma kallikrein; format: cell-free
Sequence of Coagulation factor X and plasma kallikrein (Homo sapiens) (P00742 whole entry, looked up): as the sequence (P00742 whole entry, looked up, other chains not shown) above
Sequence of Coagulation factor X and plasma kallikrein (Homo sapiens) (P03952 whole entry, looked up): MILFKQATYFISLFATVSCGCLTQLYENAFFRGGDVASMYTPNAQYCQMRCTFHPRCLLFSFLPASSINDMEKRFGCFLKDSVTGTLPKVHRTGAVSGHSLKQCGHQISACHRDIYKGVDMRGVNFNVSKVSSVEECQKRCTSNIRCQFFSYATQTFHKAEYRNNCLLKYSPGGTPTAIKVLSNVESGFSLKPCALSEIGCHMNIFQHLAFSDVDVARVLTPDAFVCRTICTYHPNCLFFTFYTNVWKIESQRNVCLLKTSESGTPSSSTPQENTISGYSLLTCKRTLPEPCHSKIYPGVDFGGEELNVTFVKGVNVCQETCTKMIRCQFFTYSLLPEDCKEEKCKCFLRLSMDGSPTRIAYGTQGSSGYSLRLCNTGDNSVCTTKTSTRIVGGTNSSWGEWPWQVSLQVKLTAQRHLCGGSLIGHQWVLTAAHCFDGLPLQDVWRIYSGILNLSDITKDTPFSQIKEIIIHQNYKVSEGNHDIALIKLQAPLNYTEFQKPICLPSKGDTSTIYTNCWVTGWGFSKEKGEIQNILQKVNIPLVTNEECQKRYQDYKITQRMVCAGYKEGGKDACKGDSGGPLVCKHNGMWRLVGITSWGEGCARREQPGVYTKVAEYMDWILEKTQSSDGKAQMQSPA

Homo sapiens [17] = species on record: Homo sapiens; assay: Selectivity for f10a over urokinase
Coagulation factor X [18] = biological target: T2, Coagulation factor X; assay: Binding affinity to human f10a
[19] = Clearance in dog at 0.5 mg/kg, iv and 0.2 mg/kg, po; format: ADME, organism-based, Canis lupus familiaris; conditions: in vivo
[20] = Volume of distribution in dog at 0.5 mg/kg, iv and 0.2 mg/kg, po; format: ADME, organism-based, Canis lupus familiaris; conditions: in vivo, read-out: Vdss
[21] = Half life in dog at 0.5 mg/kg, iv and 0.2 mg/kg, po; format: ADME, organism-based, Canis lupus familiaris; conditions: in vivo
[22] = Bioavailability in dog at 0.5 mg/kg, iv and 0.2 mg/kg, po; format: ADME, organism-based, Canis lupus familiaris; conditions: in vivo
[23] = Apparent permeability in Caco-2 cells; format: ADME, cell-based; conditions: human

SMILES: Cc1nn(-c2ccc3onc(N)c3c2)c2c(=O)n(-c3ccc(-c4ccccc4CN4CC[C@@H](O)C4)cc3)c(C)nc12
2aPTT (Coagulation factor X [6]): 5.8 µM
2PT [7]: 2.5 µM
2PT [8]: 3.4 µM
Ratio Ki (Homo sapiens [9]): > 1000
Ratio Ki [10]: > 500
Ratio Ki (Homo sapiens [11]): > 1000
Ratio Ki (Homo sapiens [12]): > 1000
Ratio Ki [13]: > 1000
Ratio Ki (Homo sapiens [14]): > 1000
Ratio Ki (Homo sapiens [15]): > 1000
Ratio Ki [16]: > 1000
Ratio Ki (Homo sapiens [17]): > 1000

SMILES: Cc1nc2c(C(F)(F)F)nn(-c3ccc4onc(N)c4c3)c2c(=O)n1-c1ccc(-c2ccccc2CN2CC[C@@H](O)C2)cc1 [listing 1 of 2 here]
2aPTT (Coagulation factor X [6]): 28 µM
2PT [7]: 6.6 µM

SMILES: CCOC(=O)c1nn(-c2ccc3onc(N)c3c2)c2c(=O)n(-c3ccc(-c4ccccc4CN4CCCC4)cc3)cnc12
Ki (Coagulation factor X [18]): 1.6 nM
2aPTT (Coagulation factor X [6]): 1.6 µM
2PT [7]: 2.3 µM

SMILES: Nc1noc2ccc(-n3nc(C(F)(F)F)c4[nH]c(=O)n(-c5ccc(-c6ccccc6CN6CC[C@@H](O)C6)cc5)c(=O)c43)cc12
Ki (Coagulation factor X [18]): 0.11 nM
2aPTT (Coagulation factor X [6]): 74.5 µM
2PT [7]: 24.1 µM

SMILES: Cc1nn(-c2ccc3onc(N)c3c2)c2c(=O)n(-c3ccc(-c4ccccc4CN4CC[C@@H](O)C4)cc3)c(C)nc12.O=C(O)C(F)(F)F
clearance [19]: 20 mL/min/kg
Vd [20]: 6.6 L/kg
half-life [21]: 228 min
bioavailability [22]: 48%
Papp [23]: 4.7 ×10⁻⁶ cm/s

SMILES: Cc1nn(-c2ccc3onc(N)c3c2)c2c(=O)n(-c3ccc(-c4ccccc4CNC(C)C)cc3)cnc12
Ki (Coagulation factor X [18]): 1.5 nM
2aPTT (Coagulation factor X [6]): 3 µM
2PT [7]: 1.9 µM

SMILES: Nc1noc2ccc(-n3nc(C(F)(F)F)c4[nH]c(=O)n(-c5ccc(-c6ccccc6CN6CCC(O)CC6)cc5)c(=O)c43)cc12
Ki (Coagulation factor X [18]): 0.22 nM
2aPTT (Coagulation factor X [6]): 352 µM
2PT [7]: 92.6 µM

SMILES: Cc1nc2c(C(F)(F)F)nn(-c3ccc4onc(N)c4c3)c2c(=O)n1-c1ccc(-c2ccccc2CN2CC[C@@H](O)C2)cc1.O=C(O)C(F)(F)F
clearance [19]: 10 mL/min/kg
Vd [20]: 6.6 L/kg
half-life [21]: 504 min
bioavailability [22]: 58%

Continued, in another order:

Ki (Prothrombin): 130 nM
Ki (Trypsin): > 4.2 µM
Ki [1]: > 37 µM
Ki (Coagulation factor IX): 37 µM
Ki (Plasminogen): > 25 µM
Ki [2]: > 40 µM
Ki [3]: > 40 µM
Ki (Chymotrypsinogen B): > 11 µM
Ki (Coagulation factor X [4]): 0.2 nM
IC50 (Oryctolagus cuniculus; Oryctolagus cuniculus): 290 nM
fraction unbound [5]: 0.03
SMILES: Cc1nc2c(C(F)(F)F)nn(-c3ccc4onc(N)c4c3)c2c(=O)n1-c1ccc(-c2ccccc2CN(C)C)cc1
ID50 (Oryctolagus cuniculus): 1.9 µmol/kg/h

fraction unbound [5]: 0.07
SMILES: CN(C)Cc1nccn1-c1ccc(NC(=O)c2cc(C(F)(F)F)nn2-c2ccc3onc(N)c3c2)c(F)c1 [RAZAXABAN HYDROCHLORIDE]

Ki (Coagulation factor X [18]): 0.35 nM
2aPTT (Coagulation factor X [6]): 37.8 µM
2PT [7]: 14.9 µM
SMILES: CN(C)Cc1nccn1-c1ccc(-n2c(=O)[nH]c3c(C(F)(F)F)nn(-c4ccc5onc(N)c5c4)c3c2=O)c(F)c1

clearance [19]: 11.7 mL/min/kg
Vd [20]: 13 L/kg
half-life [21]: 840 min
bioavailability [22]: 63%
Papp [23]: 19 ×10⁻⁶ cm/s
SMILES: Cc1nc2c(C(F)(F)F)nn(-c3ccc4onc(N)c4c3)c2c(=O)n1-c1ccc(-c2ccccc2CN(C)C)cc1.O=C(O)C(F)(F)F

clearance [19]: 55 mL/min/kg
Vd [20]: 9.5 L/kg
half-life [21]: 150 min
bioavailability [22]: 2%
Papp [23]: 11 ×10⁻⁶ cm/s
SMILES: Cc1nn(-c2ccc3onc(N)c3c2)c2c(=O)n(-c3ccc(-c4ccccc4CN(C)C)cc3)cnc12.O=C(O)C(F)(F)F

Ki (Coagulation factor X [18]): 0.18 nM
SMILES: Cc1nc2c(C(F)(F)F)nn(-c3ccc4onc(N)c4c3)c2c(=O)n1-c1ccc(-c2ccccc2CN2CC[C@@H](O)C2)cc1 [listing 2 of 2 here]

Ki (Coagulation factor X [18]): 0.5 nM
2aPTT (Coagulation factor X [6]): 18.6 µM
2PT [7]: 10.9 µM
SMILES: Cc1nc2c(C(F)(F)F)nn(-c3ccc4onc(N)c4c3)c2c(=O)n1-c1ccc(-c2ccccc2CNCC2CC2)cc1

Ki (Coagulation factor X [18]): 3.2 nM
SMILES: CN(C)Cc1ccccc1-c1ccc(-c2cnc3c(C(F)(F)F)nn(-c4ccc5onc(N)c5c4)c3c2O)cc1

2aPTT (Coagulation factor X [6]): 2.1 µM
2PT [7]: 1.3 µM
SMILES: Cc1nn(-c2ccc3onc(N)c3c2)c2c(=O)n(-c3ccc(-c4ccccc4CN(C)C)cc3)cnc12
